Assay results as given in the supplement of paper PMC7017272.
± gives the standard deviation of the averaged measurements.

Experiments:
UT-SCC-40 = assay: maximal % inhibition of viability relative to DMSO; higher = stronger effect; conditions: treatment time: 3 days
Method: (§1)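 HNSCC cell lines (500 cells/well, 384-well) were cultured on plastic, on top of (2D) or embedded (3D) in Matrigel or human leiomyoma matrix Myogel (500 ug/mL; Myogel 3D mixed with rat collagen I). Cells were treated for 3 days with 5 ten-fold concentrations of each drug, and viability was read by CellTiter-Glo. Viability was normalised to DMSO and benzethonium chloride controls and fitted with the FIMM DSRT pipeline to give IC50 (nM), maximal % inhibition and DSS. Suffixes _1/_2/_3 are replicates. Only inhibition-mode (IC50) fits are kept.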

UT-SCC-42B = assay: as above; conditions: treatment time: 3 days
Method: as §1

UT-SCC-24B [1] = assay: as above; conditions: treatment time: 3 days
Method: as §1

UT-SCC-14 [2] = assay: as above; conditions: treatment time: 3 days
Method: as §1

UT-SCC-8 [3] = assay: as above; conditions: treatment time: 3 days
Method: as §1

UT-SCC-73 = assay: as above; conditions: treatment time: 3 days
Method: as §1

UT-SCC-42A [4] = assay: as above; conditions: treatment time: 3 days
Method: as §1

UT-SCC-44 = assay: as above; conditions: treatment time: 3 days
Method: as §1

UT-SCC-81 [5] = assay: as above; conditions: treatment time: 3 days
Method: as §1

UT-SCC-106A = assay: as above; conditions: treatment time: 3 days
Method: as §1

UT-SCC-28 [6] = assay: as above; conditions: treatment time: 3 days
Method: as §1

UT-SCC-24B [7] = assay: relative IC50 (midpoint of the fitted curve; maximal inhibition may be below 50%); higher = less potent; conditions: treatment time: 3 days
Method in brief: (§2)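 Viability was read with CellTiter-Glo 2.0 luminescence and scaled against vehicle (0.1% DMSO) and cell-killing control wells. The assay used HPV-negative HNSCC cell lines at 500 cells/well in 384-well plates, grown on plastic, on Matrigel or Myogel coatings (500 µg/mL), or embedded in Matrigel or Myogel plus rat collagen I, and treated for 3 days at five 10-fold concentrations. IC50, maximal inhibition and drug sensitivity score were derived from percent-inhibition dose–response curves fitted in the FIMM pipeline.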

UT-SCC-14 [8] = assay: as above; conditions: treatment time: 3 days
Method in brief: as §2

UT-SCC-8 [9] = assay: as above; conditions: culture condition: embedded in Matrigel; treatment time: 3 days
Method in brief: as §2

UT-SCC-42A [10] = assay: as above; conditions: culture condition: on top of Matrigel; treatment time: 3 days
Method in brief: as §2

UT-SCC-81 [11] = assay: as above; conditions: treatment time: 3 days
Method in brief: as §2

UT-SCC-28 [12] = assay: as above; conditions: culture condition: plastic 2D (no matrix); treatment time: 3 days
Method in brief: as §2

[13] = culture condition: embedded in Matrigel
[14] = culture condition: embedded in Myogel + collagen I
[15] = culture condition: on top of Matrigel
[16] = culture condition: on top of Myogel
[17] = culture condition: plastic 2D (no matrix)

## CC(=O)Nc1cccc(-n2c(=O)n(C3CC3)c(=O)c3c(Nc4ccc(I)cc4F)n(C)c(=O)c(C)c32)c1 [Trametinib]
UT-SCC-40; [13]
  maximal % inhibition of viability: 78.07 ± 0.4%
UT-SCC-40; [14]
  maximal % inhibition of viability: 61.7 ± 4.8%
UT-SCC-40; [15]
  maximal % inhibition of viability: 71.7 ± 2.8%
UT-SCC-40; [16]
  maximal % inhibition of viability: 51.9 ± 1.5%
UT-SCC-40; [17]
  maximal % inhibition of viability: 52.2 ± 7.5%
UT-SCC-42B; [13]
  maximal % inhibition of viability: 67.8 ± 4.4%
UT-SCC-42B; [15]
  maximal % inhibition of viability: 52.2 ± 7.1%
UT-SCC-42B; [16]
  maximal % inhibition of viability: 20.8 ± 7.8%
UT-SCC-42B; [17]
  maximal % inhibition of viability: 28.8 ± 8%
UT-SCC-24B [1]; [13]
  maximal % inhibition of viability: 67.1 ± 3.1%
UT-SCC-24B [1]; [14]
  maximal % inhibition of viability: 66.5 ± 3.8%
UT-SCC-24B [1]; [15]
  maximal % inhibition of viability: 67.53 ± 0.29%
UT-SCC-24B [1]; [16]
  maximal % inhibition of viability: 59.1 ± 4.8%
UT-SCC-24B [1]; [17]
  maximal % inhibition of viability: 78.8 ± 1.7%
UT-SCC-14 [2]; [13]
  maximal % inhibition of viability: 43.2 ± 5.3%
UT-SCC-14 [2]; [14]
  maximal % inhibition of viability: 31 ± 10%
UT-SCC-14 [2]; [15]
  maximal % inhibition of viability: 37.1 ± 8.6%
UT-SCC-14 [2]; [16]
  maximal % inhibition of viability: 22.9 ± 3%
UT-SCC-14 [2]; [17]
  maximal % inhibition of viability: 24 ± 8.8%
UT-SCC-8 [3]; [13]
  maximal % inhibition of viability: 61.3 ± 18%
UT-SCC-8 [3]; [14]
  maximal % inhibition of viability: 24.5 ± 29%
UT-SCC-8 [3]; [15]
  maximal % inhibition of viability: 47.3 ± 24%
UT-SCC-8 [3]; [16]
  maximal % inhibition of viability: 41.1 ± 19%
UT-SCC-8 [3]; [17]
  maximal % inhibition of viability: 43 ± 23%
UT-SCC-73; [13]
  maximal % inhibition of viability: 81.2 ± 1.7%
UT-SCC-73; [14]
  maximal % inhibition of viability: 62.8 ± 12%
UT-SCC-73; [15]
  maximal % inhibition of viability: 76.9 ± 0.9%
UT-SCC-73; [16]
  maximal % inhibition of viability: 63.3 ± 3.6%
UT-SCC-73; [17]
  maximal % inhibition of viability: 70.53 ± 0.25%
UT-SCC-42A [4]; [13]
  maximal % inhibition of viability: 45.4 ± 0.67%
UT-SCC-42A [4]; [14]
  maximal % inhibition of viability: 22.1 ± 5.4%
UT-SCC-42A [4]; [15]
  maximal % inhibition of viability: 50.3 ± 4.1%
UT-SCC-42A [4]; [16]
  maximal % inhibition of viability: 29.4 ± 6.9%
UT-SCC-42A [4]; [17]
  maximal % inhibition of viability: 34.7 ± 3.8%
UT-SCC-44; [13]
  maximal % inhibition of viability: 66.8 ± 1.4%
UT-SCC-44; [14]
  maximal % inhibition of viability: 23 ± 2.4%
UT-SCC-44; [15]
  maximal % inhibition of viability: 46.1 ± 8.3%
UT-SCC-44; [16]
  maximal % inhibition of viability: 28.4 ± 11%
UT-SCC-44; [17]
  maximal % inhibition of viability: 41.1 ± 9%
UT-SCC-81 [5]; [13]
  maximal % inhibition of viability: 84.9 ± 2.4%
UT-SCC-81 [5]; [14]
  maximal % inhibition of viability: 24.5 ± 2.6%
UT-SCC-81 [5]; [15]
  maximal % inhibition of viability: 78.6 ± 2.9%
UT-SCC-81 [5]; [16]
  maximal % inhibition of viability: 27.8 ± 11%
UT-SCC-81 [5]; [17]
  maximal % inhibition of viability: 44.1 ± 8.9%
UT-SCC-106A; [13]
  maximal % inhibition of viability: 51.5 ± 3.2%
UT-SCC-106A; [14]
  maximal % inhibition of viability: 15.1 ± 2.8%
UT-SCC-106A; [15]
  maximal % inhibition of viability: 61.8 ± 3.4%
UT-SCC-106A; [16]
  maximal % inhibition of viability: 23.2 ± 8.1%
UT-SCC-106A; [17]
  maximal % inhibition of viability: 63.5 ± 1.5%
UT-SCC-28 [6]; [13]
  maximal % inhibition of viability: 36.7 ± 7.8%
UT-SCC-28 [6]; [14]
  maximal % inhibition of viability: 29.7 ± 26%
UT-SCC-28 [6]; [15]
  maximal % inhibition of viability: 35.1 ± 7.7%
UT-SCC-28 [6]; [17]
  maximal % inhibition of viability: 21.1 ± 4.4%
UT-SCC-24B [7]; [13]
  relative IC50: 9.83 nM
UT-SCC-24B [7]; [14]
  relative IC50: 9.92 nM
UT-SCC-24B [7]; [15]
  relative IC50: 11.6 nM
UT-SCC-24B [7]; [16]
  relative IC50: 22.7 nM
UT-SCC-24B [7]; [17]
  relative IC50: 7.62 nM
UT-SCC-14 [8]; [13]
  relative IC50: 3.5 nM
UT-SCC-14 [8]; [15]
  relative IC50: 7.96 nM
UT-SCC-14 [8]; [17]
  relative IC50: 17.5 nM
UT-SCC-8 [9]
  relative IC50: 11.3 nM
UT-SCC-42A [10]
  relative IC50: 3.65 nM
UT-SCC-81 [11]; [14]
  relative IC50: 6.59 nM
UT-SCC-81 [11]; [17]
  relative IC50: 7.02 nM
UT-SCC-28 [12]
  relative IC50: 1.42 nM
